pIC50: −log10 of the molar value. Where a name gives a salt, the structure may show the parent alone.
Biological target: PAI-1 (Homo sapiens, UniProt P05121)
Assay: PAI-1 inhibition in the S2251 chromogenic substrate assay (PAI functional assay)
Assay type: biochemical
Details: for INHIBITION OF PAI-1 (degree of inhibition): Table 1, first part, unit assumed; for inhibition at 20 µM / inhibition at 100 µM / inhibition at 50 µM: Table 1, second part, read-out: INHIBITION OF PAI-1 (degree of inhibition)
Experimental: In this assay, a compound is incubated with PAI-1 prior to addition to the tPA assay system. Inhibition of PAI-1 results in the production of plasmin from plasminogen. […]
Compounds of formula (A) were tested in a PAI chromogenic substrate assay. […] In turn, the plasmin cleaved the chromogenic substrate S2251 (Kabi-Vitrum) producing pNA (p-nitroaniline) which was detected scectrophotometrically at 405 nm.

Sequence of PAI-1 (P05121 24-402): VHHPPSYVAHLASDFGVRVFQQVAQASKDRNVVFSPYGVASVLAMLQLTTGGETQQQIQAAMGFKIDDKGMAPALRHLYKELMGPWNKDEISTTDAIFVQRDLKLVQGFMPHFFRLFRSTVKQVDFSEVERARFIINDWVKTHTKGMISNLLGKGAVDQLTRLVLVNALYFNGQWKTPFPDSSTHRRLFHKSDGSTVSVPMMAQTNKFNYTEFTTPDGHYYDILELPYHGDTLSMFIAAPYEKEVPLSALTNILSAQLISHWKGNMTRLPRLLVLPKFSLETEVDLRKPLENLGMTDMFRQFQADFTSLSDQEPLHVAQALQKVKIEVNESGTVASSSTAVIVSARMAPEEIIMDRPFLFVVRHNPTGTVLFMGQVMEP

INHIBITION OF PAI-1 (degree of inhibition) (6.25 μm) | INHIBITION OF PAI-1 (degree of inhibition) (12.5 μm) | INHIBITION OF PAI-1 (degree of inhibition) (25 μm) | INHIBITION OF PAI-1 (degree of inhibition) (50 μm) | INHIBITION OF PAI-1 (degree of inhibition) (100 μm) | pIC50 (PAI-1, S2251 assay, Table 2) | inhibition at 20 µM | inhibition at 100 µM | inhibition at 50 µM | SMILES
63% | 61% | 50% | 36% | 27% | 5.00 to 5.30 |  |  |  | O=c1[nH]/c(=C\c2ccc(OCCn3ccnc3)cc2)c(=O)[nH]/c1=C\c1ccccc1 [Compound 1910, (3Z,6Z)-3-Benzylidene-6-(4-(2-imidazolylethoxy)benzylidene)-2,5-piperazinedione]
16% | 14% | 25% | 43% | 65% |  |  |  |  | CN(C)c1ccc(C=C/C=c2\[nH]c(=O)/c(=C/c3ccccc3)[nH]c2=O)cc1 [Compound 1921, (3Z,6Z)-3-Benzylidene-6-(4-dimethylaminocinnamylidene)-2,5-piperazinedione]
14% | 13% | 26% | 11% | 13% |  |  |  |  | O=c1[nH]/c(=C\c2ccccc2)c(=O)[nH]/c1=C\C=C(c1ccccc1)c1ccccc1 [Compound 1922, (3Z,6Z)-3-Benzylidene-6-(γ-phenylcinnamylidene)-2,5-piperazinedione]
13% | 12% | 20% | 31% | 38% |  |  |  |  | O=c1[nH]/c(=C\c2ccccc2)c(=O)[nH]/c1=C\C=Cc1ccc([N+](=O)[O-])cc1 [Compound 1923]
10% | 6% | 12% | 35% | 36% |  |  |  |  | O=c1[nH]/c(=C\c2c[nH]cn2)c(=O)[nH]/c1=C\c1ccccc1 [Compound 1926, (3Z,6Z)-3-Benzylidene-6-(4-imidazolyl)methylene-2,5-piperazinedione]
14% | 22% | 20% | 39% | 33% |  |  |  |  | Cc1[nH]cnc1/C=c1\[nH]c(=O)/c(=C/c2ccccc2)[nH]c1=O [Compound 1927, (3Z,6Z)-3-Benzylidene-6-(4-(5-methylimidazolyl))methylene-2,5-piperazinedione]
16% | 48% | 59% | 45% | 27% |  |  |  |  | O=c1[nH]/c(=C\c2ccc(Cn3ccnc3)cc2)c(=O)[nH]/c1=C\c1ccccc1 [Compound 1929, (3Z,6Z)-3-Benzylidene-6-(4-(1-imidazolylmethyl)benzylidene)-2,5-piperazinedione]
30% | 38% | 79% | 61% | 54% |  |  |  |  | O=c1[nH]/c(=C\c2ccc(-n3ccnc3)cc2)c(=O)[nH]/c1=C\c1ccccc1 [Compound 1930]
1% | 2% | 2% | 3% | 19% |  |  |  |  | COc1cc(C=C/C=c2\[nH]c(=O)/c(=C/c3ccccc3)[nH]c2=O)ccc1OCCN(C)C [Compound 1950, (3Z,6Z)-3-Benzylidene-6-(4-(2-dimethylaminoethoxy)-3-methoxycinnamylidene)-2,5-piperazinedione]
1% | 2% | 2% | 1% | 5% |  |  |  |  | COc1cc(/C=c2\[nH]c(=O)/c(=C/c3ccccc3)[nH]c2=O)ccc1OCCN(C)C [Compound 1959, (3Z,6Z)-3,Benzylidene-6-(4-(2-dimethylaminoethoxy)-3-methoxybenzylidene)-2,5-piperazinedione hydrochloride]
0% | 0% | 0% | 0% | 7% |  |  |  |  | CN(C)CCCOc1ccc(/C=c2\[nH]c(=O)/c(=C/c3ccc(Cn4ccnc4)cc3)[nH]c2=O)cc1 [Compound 1975, (3Z,6Z)-3-(4-(3-Dimethylaminopropoxy)benzylidene)-6-(4-(1-imidazolylmethyl)benzylidene)-2,5-piperazinedione]
0% | 0% | 0% | 0% | 3% |  |  |  |  | CN(C)CCCOc1ccc(/C=c2\[nH]c(=O)/c(=C/c3ccc(-n4ccnc4)cc3)[nH]c2=O)cc1 [Compound 1976]
1% | 6% | 28% | 49% | 48% |  |  |  |  | CN(C)CCN(C)Cc1ccc(/C=c2\[nH]c(=O)/c(=C/c3ccccc3)[nH]c2=O)cc1 [Compound 1982, (3Z,6Z)-3-Benzylidene-6-(4-(N-methyl-N-(2-dimethylaminoethyl)aminomethylbenzylidene-2,5-piperazinedione hydrochloride]
0% | 0% | 0% | 14% | 34% |  |  |  |  | CN1CCC(N(C)Cc2ccc(/C=c3\[nH]c(=O)/c(=C/c4ccccc4)[nH]c3=O)cc2)CC1 [Compound 1983]
 |  |  |  |  |  | 1% |  |  | CN(C)CCCOc1ccc(/C=c2\[nH]c(=O)/c(=C/c3ccc(CN(C)C)cc3)[nH]c2=O)cc1 [Compound 5023]
 |  |  |  |  |  | 10% | 34% |  | CN(C)CCCOc1ccc(/C=c2\[nH]c(=O)/c(=C/c3ccc(Cn4ccnc4)cc3)[nH]c2=O)cc1 [Compound 5026, (3Z,6Z)-3-(4-(3-Dimethylaminopropoxy)benzylidene)-6-(4-(1-imidazolyl)methylbenzylidene)-2,5-piperazinedione]
 |  |  |  |  |  | 8% | 12% | 8% | CN(C)CCCOc1ccc(/C=c2\[nH]c(=O)/c(=C/c3ccncc3)[nH]c2=O)cc1 [Compound 5027]
 |  |  |  |  |  | 4% | 11% | 4% | CN(C)CCCOc1ccc(/C=c2\[nH]c(=O)/c(=C/c3cccnc3)[nH]c2=O)cc1 [Compound 5028, (3Z,6Z)-6-(4-(3-Dimethylaminopropoxy)benzylidene)-3-(3-pyridylmethylene)-2,5-piperazinedione]
 |  |  |  |  |  | 6% | 20% | 7% | CN(C)CCCOc1ccc(/C=c2\[nH]c(=O)/c(=C/c3ccc(-n4ccnc4)cc3)[nH]c2=O)cc1 [Compound 5030, (3Z,6Z)-3-(4-(3-Dimethylaminopropoxy)benzylidene)-6-(4-(1-imidazolyl)benzylidene)-2,5-piperazinedione]
